How the values were obtained:
human 14273 receptor = biological target: T1, human 14273 receptor (Homo sapiens, UniProt Q5NUL3); experiment: Test Example 1: regulating effect for 14273 receptor function (agonist effect), change in intracellular calcium level by FLIPR; assay type: cell-based; conditions: CHO cell line (No. 104) expressing human 14273 receptor, change of fluorescent intensity after 35 seconds
T1 construct: expressed in transfected cells
T1 sequence (Q5NUL3 1-361): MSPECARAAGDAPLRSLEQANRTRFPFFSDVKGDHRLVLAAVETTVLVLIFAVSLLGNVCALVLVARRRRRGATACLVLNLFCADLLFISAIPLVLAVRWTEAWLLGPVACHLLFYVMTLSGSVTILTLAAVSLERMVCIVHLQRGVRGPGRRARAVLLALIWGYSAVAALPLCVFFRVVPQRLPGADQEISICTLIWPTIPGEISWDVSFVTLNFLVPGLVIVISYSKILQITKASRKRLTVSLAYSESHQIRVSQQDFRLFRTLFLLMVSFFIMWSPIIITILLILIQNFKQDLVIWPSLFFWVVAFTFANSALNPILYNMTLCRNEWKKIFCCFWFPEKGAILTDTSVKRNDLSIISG
Procedure: CHO cell lines (No. 104) in which a human 14273 receptor has expressed was diluted to contain 3×10^4/100 μl cells, and dispensed in Black walled 96-well plate (Costar) at a density of 100 μl/well, followed by culturing overnight in a CO2 incubator. A change in intracellular calcium level was measured using FLIPR (Molecular Device). The method is described as below. 50 μg of Fluo-3AM (DOJIN) was dissolved in 21 μl of DMSO (DOJIN) and an equal volume of 20% pluronic acid (Molecular Probes) was added thereto, followed by mixing them. The mixture was added to 10.6 ml of the assay buffer [which is prepared by adding 10 ml of a solution, which is prepared by adding 20 ml of 1 M HEPES (pH 7.4, DOJIN) to 1 L of HBSS (Invitrogen), dissolving 710 mg of probenecid (Sigma) in 5 ml of 1 N NaOH, and further adding 5 ml of the above-mentioned HBSS/HEPES solution and mixing it.] supplemented with 105 μl of fetal bovine serum to prepare a fluorescent dye solution. The medium of the cell plate was removed, the fluorescent dye solution was dispensed in 100 μl each per well. The culturing was performed in a CO2 incubator for 1 hour to incorporate the fluorescent dye into the cells. The cells after culturing were washed with the assay buffer. The compounds to be added to the cells were diluted to each concentration with a buffer solution to which CHAPS (DOJIN) was added in 0.015%, and dispensed in a plate for the test sample. Following the pretreatment above, a change in intracellular calcium level after addition of the compound was determined with FLIPR to investigate the agonist effect. An EC50 value was calculated from dose-reaction curve using the change of fluorescent intensity after 35 seconds from the reaction initiation.

AtT-20 cells = experiment: Test Example 3: suppression of CRF-induced ACTH secretion in AtT-20 cells; assay type: cell-based, mouse; conditions: 10 μM of compound; 100 nM CRF; 90 minutes; adherent AtT-20 substrain
Procedure: Influence on ACTH secretion from mouse pituitary corticotrophic cell line AtT-20 cells was analyzed. […] This adherent AtT-20 cell substrain was cultured on a poly-D-lysine-coated 48-well plate at a density of 1×10^5 cells/well for 2 nights, which was provided for assay. […] After washing the cells once with this buffer, a predetermined concentration of the compound was added thereto, followed by addition of a buffer containing 100 nM of a corticotropin-releasing factor (CRF), and followed by culturing at 37° C. for 90 minutes in a CO2 incubator. Then, the plate was gently stirred, then centrifuged at 1200 rpm for 5 minutes at room temperature and the buffer was recovered from the intermediate layer. The ACTH concentration was determined using an ACTH assay kit (Mitsubishi Medical, ACTH IRMA “Yuka”).

## O=C(O)CCc1ccc(OCc2cccc(Oc3ccc(F)cc3)c2)c(F)c1 [Example 161, 3-(3-fluoro-4-{[3-(4-fluorophenoxy)benzyl]oxy}phenyl)propanoic acid]
Human 14273 receptor
  EC50: ≤ 10 µM
AtT-20 cells
  lowering of the amount of ACTH secretion increased by CRF stimulation: 49%
